Here are results for 3 compounds from patent publication US20040259772A1, “Use of a histone deacetylase inhibitor to increase the entry of an adenoviral agent into a cell” (priority 2001, published 2004).

Assay [1] deals with A498, MCF7 and HepG2 cancerous cell lines. The assay can be described thus: β-galactosidase expression upon AdCMVβgal infection, cancerous cell lines (Example 4). It is filed as cell-based, human. As for the experimental part:
(§1) 10^4 untreated cells or 10^4 cells pre-treated with 1 ng/ml depsipeptide for 72 hrs were plated on a round cover glass (DAIGGER, Vernon Hills, Ill.) in 24 well plates. Cells were transduced with 100 MOI of Ad-βgal in medium without serum for 1 hr and maintained with serum-containing medium for 48 hrs after transduction. Adenovirus transgene expression was compared using the β-Gal Staining Kit (Invitrogen, Carlsbad, Calif.) and β-gal positive cells were counted from three non-overlapping fields.
A498, MCF7 and HepG2 cancerous cell lines and normal cells (Clonetics, Walkersville, Md.) were treated with FR901228. […] Induction of CAR was only observed in normal cells at 10-20 ng/ml FR901228 and then only a two-fold increase in CAR was observed.

The subject of assay [2] is acetylated histone H3. Nature of the assay: Western blot analysis of acetylated histone H3. Type of assay: cell-based, human. As for the experimental part: Supernatants were collected as nuclear extracts. […] The membrane was incubated for 30 min with either a rabbit polyclonal antibody against acetylated histone H3 (Upstate Biotechnology, Lake Placid, N.Y.) or a rabbit polyclonal antibody against histone H3 (Upstate Biotechnology, Lake Placid, N.Y.) diluted 1:2000 in 5% milk. After washing, anti-rabbit Ig horseradish peroxidase-linked secondary antibody (Amersham Pharmacia Biotech, Piscataway, N.J.) was added and incubated for 30 min. After washing, the membrane was developed in ECL™ Western blotting detection reagents (Amersham Pharmacia Biotech, Piscataway, N.J.).
For orientation: Immunoblotting shows a protein as a band on a membrane.

Assay [3] concerns G-CSF-mobilized peripheral blood mononuclear cells (PBMNCs). Nature of the assay: Adenoviral β-galactosidase transgene expression in PBMNCs. Type of assay: cell-based. As to conditions: pre-treated 0.1 ng/ml for 24 hr, moi=10, incubation less than 1 hr. The text has this: (§2) […] […] Adenovirus transgene expression was compared using the β-Gal Staining Kit (Invitrogen, Carlsbad, Calif.) and β-gal positive cells were counted from three non-overlapping fields.

The next assay deals with CAR. The assay can be described thus: CAR expression in PBMNCs of a Phase I depsipeptide patient. It is filed as in vivo, human. The text has this:
(§3) In addition to the above, PBMNCs were obtained from a patient enrolled in a Phase I depsipeptide (FR901228) study (concentrations used with cultured cells are within the range administered to patients) and examined.

Assay [4] concerns human umbilical vein endothelial cells (HUVEC). The assay can be described thus: Adenoviral β-galactosidase transgene expression in HUVEC. It is filed as cell-based. The note with it: HUVEC treated with 0.3 ng/ml for 48 hr prior to adenoviral infection. The text has this:
[…] Cells were transduced with 100 MOI of Ad-βgal in medium without serum for 1 hr and maintained with serum-containing medium for 48 hrs after transduction. Adenovirus transgene expression was compared using the β-Gal Staining Kit (Invitrogen, Carlsbad, Calif.) and β-gal positive cells were counted from three non-overlapping fields.

The test system of assay [5] is human cancer cell lines FTC 236, SW-1736, SW620, A498, MCF7, HepG2. Nature of the assay: Transduction efficiency by Ad-βgal (β-gal positive cells), six cancer cell lines. Type of assay: cell-based. As to conditions: 72 hrs with 1 ng/ml depsipeptide. As to the method: A total of 6 human cancer cell lines were tested: a follicular thyroid carcinoma (FTC 236) (Demeure et al., World J. Surg. 16:770-776 (1992)); an anaplastic thyroid carcinoma (SW-1736) (Ain et al., J. Clin. Endocrinol. Metab. 81:3650-3653 (1996)); a colon carcinoma (SW620) (Leibovitz et al., Cancer Res. 36:4562-4569 (1976)); a renal cell carcinoma (A498) (Giard et al., J. Natl. Cancer Inst. 51:1417-1423 (1973)); a breast carcinoma (MCF7) (Soule et al., J. Natl. Cancer Inst. 51:1409-1413 (1973)); and a hepatocarcinoma (HepG2) (Knowles et al., Science 209:497-499 (1980)).
The Ad5.CMV-LacZ is an E1 and E3 gene deleted replication defective type 5 adenovirus obtained from Qbiogene (Carlsbad, Calif.). It was grown in 293A cells according to protocols supplied by the company. The AdCMVβgal virus was purified and the titer was determined by the TCID50 assay as described by the manufacturer.
as §1

Assay [6] deals with acetylated histone H3. The assay can be described thus: Acetylated histone H3 in PBMNCs of a Phase I depsipeptide patient. It is filed as in vivo, human. As to conditions: after administration of depsipeptide.
Text: as §3

Another assay relates to histone H3. Nature of the assay: Western blot analysis of total histone H3. It is filed as cell-based, human. As to the method: Supernatants were collected as nuclear extracts. Ten […] of protein were separated on an 11% SDS-PAGE gel, and electroblotting to Immobilon™-P transfer membrane (Millipore, Bedford, Mass.) was performed. The membrane was incubated for 30 min with either a rabbit polyclonal antibody against acetylated histone H3 (Upstate Biotechnology, Lake Placid, N.Y.) or a rabbit polyclonal antibody against histone H3 (Upstate Biotechnology, Lake Placid, N.Y.) diluted 1:2000 in 5% milk. After washing, anti-rabbit Ig horseradish peroxidase-linked secondary antibody (Amersham Pharmacia Biotech, Piscataway, N.J.) was added and incubated for 30 min. After washing, the membrane was developed in ECL™ Western blotting detection reagents (Amersham Pharmacia Biotech, Piscataway, N.J.).

In assay [7] the test system is coxsackie-adenovirus receptor (CAR). Nature of the assay: RT-PCR analysis of CAR RNA levels in cultured cells. It is filed as cell-based, human. The note with it: for level of CAR (RT-PCR), compared with K562: less than 3 ng/ml; for level of CAR (RT-PCR): HUVEC. As to the method:
RT-PCR for CAR and integrin αv was performed using total RNA extracted with the RNeasy Mini Kit (Qiagen, Valencia, Calif.). Single-stranded oligo(dt)-primed cDNA was generated from 1 μg of RNA in a 20 μl reaction using MMLV reverse transcriptase (Life Technologies, Eggenstein, Germany). Oligonucleotide primers used for analysis of human CAR (Bergelson et al., supra) and αv integrin (Suzuki et al., Proc. Natl. Acad. Sci. U.S.A. 83:8614-8618 (1986)) RNA expression were:
These primers generated products that were 631 bp (CAR) and 490 bp (αv integrin) in length. The amplification reaction was carried out with 1 μg of the cDNA product for 30 cycles, and each cycle consisted of 94° C for 20 sec, 64° C. for 30 sec and 72° C. for 1 min, followed by a final 10 min elongation at 72° C. Comparability of RNA quantities was assured using β-actin as an internal standard. Oligonulceotide primers for human β-actin RNA amplification were: […]

For the next assay, the system named is K562 cells. Nature of the assay: Adenoviral β-galactosidase transgene expression in K562. The note with it: pre-treated 1 ng/ml for 24 hr, moi=50, incubation less than 1 hr. It is filed as cell-based, human.
Text: as §2

Assay [8] concerns CD34+ selected peripheral blood stem cells (PBSCs). The assay can be described thus: Adenoviral β-galactosidase transgene expression in CD34+ PBSCs. The note with it: pre-treated 0.1 ng/ml for 24 hr, moi=10, incubation less than 1 hr. It is filed as cell-based.
Text: as §2

For the next assay, the system named is αv integrin. The assay can be described thus: RT-PCR analysis of αv integrin RNA levels in cultured cells. It is filed as cell-based, human. As for the experimental part: RT-PCR for CAR and integrin αv was performed using total RNA extracted with the RNeasy Mini Kit (Qiagen, Valencia, Calif.). Single-stranded oligo(dt)-primed cDNA was generated from 1 μg of RNA in a 20 μl reaction using MMLV reverse transcriptase (Life Technologies, Eggenstein, Germany).
The amplification reaction was carried out with 1 μg of the cDNA product for 30 cycles, and each cycle consisted of 94° C for 20 sec, 64° C. for 30 sec and 72° C. for 1 min, followed by a final 10 min elongation at 72° C. Comparability of RNA quantities was assured using β-actin as an internal standard. Oligonulceotide primers for human β-actin RNA amplification were: […]

[9] abbreviates: 1 ng/ml depsipeptide for 72 hrs, all six human cancer cell lines.
Where [10] appears, read: A498, MCF7, HepG2 cancerous cells, 1 ng/ml.

For `C/C=C1\NC(=O)[C@H]2CSSCC/C=C/[C@H](CC(=O)N[C@H](C(C)C)C(=O)N2)OC(=O)[C@H](C(C)C)NC1=O` [FR901228], the “cancerous cells expressing β-galactosidase” value in assay [1] (A498, MCF7, HepG2 following FR901228 treatment) is on record as 75-85%. In assay [1] (all cancerous cell lines (A498, MCF7, HepG2) following FR901228 treatment), the “increase in β-galactosidase expression upon infection” value is given as 4-10 fold. For the same compound, the histone acetylation entry was “marked increase” with acetylated histone H3 [2] (1 ng/ml depsipeptide, cancer cell lines of Example 1) and “increased histone acetylation” in the assay on acetylated histone H3 [2] (cancerous cells, 1 ng/ml). For the same compound, the “level of acetylated histone H3” value with acetylated histone H3 [2] (CD34+ PBSCs), in the assay with acetylated histone H3 [2] (HUVEC) and with acetylated histone H3 [2] (K562 cells) was “increased the level of acetylated histone H3 substantially” throughout. In addition, the “concentration required to increase histone acetylation” value in the assay with acetylated histone H3 [2] (normal cells, compared with cancerous cells) was “higher concentration”. In addition, the “cells expressing β-galactosidase” value in assay [3] is on record as “more than 80%”; in [5] (then adenovirus with CMV-β-galactosidase, six cancer cell lines), 72-88%; with K562 cells, “more than 80%”; in assay [8], “more than 80%”. Further, the entries for the “CAR expression in patient PBMNCs” value in the assay with CAR (after completion of a 4 hr depsipeptide infusion) and in the assay with CAR (at 24 hr of depsipeptide infusion) were “increase” and “further increase”, respectively. Further, in assay [4], the “cells expressing the β-galactosidase transgene” value is listed as “over 80%”. Besides, the “frequency of expression of the β-galactosidase transgene” value in assay [5] (all cell lines) is given as “marked increases”. Moreover, the “level of acetylated histone H3 in patient PBMNCs” value in the assay with acetylated histone H3 [6] is listed as “increased”. The “level of histone H3” value in the assay with histone H3 (HUVEC) is recorded as “not altering the level of histone H3”. The “total histone H3 levels” value in the assay on histone H3 (K562 cells and CD34+ PBSCs) is given as “No significant change”. Further, the “expression of endogenous CAR” value in assay [7] (setting [9]) is on record as “increased expression”. Also, the CAR expression result in assay [7] (setting [10]) was “increased CAR expression in cancerous cells to levels higher than those found in normal cells”. Also, the “level of CAR (RT-PCR), compared with K562” value in assay [7] (CD34+ selected PBSCs) and in assay [7] (G-CSF-mobilized PBMNCs) was “Comparable levels of CAR” in each case. The “level of CAR (RT-PCR)” value in assay [7] (0.3 ng/ml for 48 hr) is reported as “increased the level of CAR significantly”. Moreover, in assay [7] (K562 cells, 1 ng/ml), the “increase in level of CAR (RT-PCR)” value is recorded as “about 3 fold”. In addition, the “concentration at which induction of CAR was observed” value in [7] (normal cells (Clonetics)) was in the range of 10 to 20 ng/mL. For the same compound, the “increase in CAR” value in assay [7] (normal cells, 10-20 ng/ml) is listed as “two-fold”. Further, the “expression of endogenous αv integrin” value in the assay on αv integrin (setting [9]) was “increased expression”. For the same compound, in the assay on αv integrin (setting [10]), the “levels of αv integrins” value is on record as “increased from undetectable to a level similar to that found in untreated normal cells”. The “levels of αv integrins (printed 'o integrins')” value in the assay with αv integrin (normal cells treated in the same manner) is on record as “little increase”.

Turning to `CCCC(=O)[O-].[Na+]` [sodium butyrate], in [7] (concentration not given), the “level of CAR (RT-PCR)” value is on record as “little effect”.

Take `CC(/C=C/C(=O)NO)=C\[C@@H](C)C(=O)c1ccc(N(C)C)cc1` [trichostatin A]: the “level of CAR (RT-PCR)” value in assay [7] (concentration not given) is listed as “increased the level of CAR slightly”.
